Like-named read-outs stand apart in the source and are kept apart here.
What was measured:
[1] = target: T1, GSK3β (Homo sapiens, UniProt P49841); experiment: Z'-LYTE kinase assay, […] ATP, […] min preincubation (IC50 […] without preincubation); type: biochemical
T1 construct: gene GSK3B

[2] = target: T1, GSK3β; experiment: as above; type: biochemical; remark: listed apart in the source

T1 sequence (P49841 whole entry): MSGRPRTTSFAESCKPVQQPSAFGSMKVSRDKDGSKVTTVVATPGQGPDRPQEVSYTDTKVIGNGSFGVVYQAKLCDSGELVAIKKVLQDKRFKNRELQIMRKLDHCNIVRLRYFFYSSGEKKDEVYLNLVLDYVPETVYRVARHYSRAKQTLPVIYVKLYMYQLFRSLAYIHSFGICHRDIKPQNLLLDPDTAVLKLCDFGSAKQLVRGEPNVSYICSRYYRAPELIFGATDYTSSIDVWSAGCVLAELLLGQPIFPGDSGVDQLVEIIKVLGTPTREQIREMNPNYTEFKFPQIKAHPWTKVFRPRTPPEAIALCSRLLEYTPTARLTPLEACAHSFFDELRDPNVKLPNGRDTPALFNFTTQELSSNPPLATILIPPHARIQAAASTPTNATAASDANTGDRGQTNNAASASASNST

Compound | IC50 [1] [nM] | IC50 [2] [nM]
CO/N=C(\C(=O)N[C@@H]1C(=O)N2C(C(=O)O)=C(CSc3nc(=O)c(=O)[nH]n3C)CS[C@H]12)c1csc(N)n1 [B, ceftriaxone] | 780 | 
C=CC1=C(C(=O)O)N2C(=O)[C@@H](NC(=O)/C(=N\OCC(=O)O)c3csc(N)n3)[C@H]2SC1 [A, cefixime] |  | 550

— publication PMC10087387, “Molecular docking, molecular dynamics simulations and in vitro screening reveal cefixime and ceftriaxone as GSK3β covalent inhibitors” (RSC Advances, 2023)
